Marks after values point to notes of the source that are not given here.
Experiments:
Type in all cases: in vivo
Kunming mice [1] = experiment: Influence on hypnosis effect with pentobarbital sodium doses below the threshold (25 mg/kg i.p.); details: pentobarbital sodium 25 mg/kg i.p. 60 min later, sleep observed in 30 min, n = 10
How it was run: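 Percentage of mice sleeping within 30 min after subthreshold pentobarbital sodium (25 mg/kg i.p.), defined by loss of righting reflex over 1 min, analysed by χ2. Compound in 0.5% CMC-Na given intragastrically at 25/50/100 mg/kg 60 min before; groups of 10 Kunming mice, both sexes.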

Kunming mice [2] = experiment: Influence on autonomic activity of normal mice (ZIL-2 mice autonomic activity meter, counts within 10 min); details: intragastric, x ± s; for Times of activities in 1 h after drug administration/10 min: 1 h after administration; for Times of activities in 2 h after drug administration/10 min: 2 h after administration; for Times of activities in 24 h after drug administration/10 min: 24 h after administration
How it was run: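 Activity counts during a 10-min window were taken at 1, 2 and 24 h after dosing in groups of 10 mixed-sex Kunming mice. Compounds were given in 0.5% CMC-Na at 25, 50 or 100 mg/kg. Statistics used Levene's homogeneity test, ANOVA and Dunnett's multiple comparisons.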

Kunming mice [3] = experiment: Influence on hypnosis effect with pentobarbital sodium doses at the threshold (50 mg/kg i.p.); details: pentobarbital sodium 50 mg/kg i.p. 60 min later, x ± s, n = 10
How it was run: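 Pentobarbital sodium (0.3%, 50 mg/kg i.p.) injected 60 min after a single intragastric dose (25, 50, 100 mg/kg, 0.5% CMC-Na vehicle) in Kunming mice, 10 per group, sexes balanced. Onset and length of sleep (righting reflex lost over 1 min) analysed by ANOVA; sleeping incidence by χ2 test.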

[4] = test drug 25 mg/kg intragastric single dose
[5] = test drug 50 mg/kg intragastric single dose
[6] = test drug 100 mg/kg intragastric single dose
[7] = 25 mg/kg intragastric single dose
[8] = 50 mg/kg intragastric single dose
[9] = 100 mg/kg intragastric single dose

| SMILES | Number of sleeping animals (Kunming mice [1]; [4]) | rate of sleeping (%) (Kunming mice [1]; [4]) | Number of sleeping animals (Kunming mice [1]; [5]) | rate of sleeping (%) (Kunming mice [1]; [5]) | Number of sleeping animals (Kunming mice [1]; [6]) | rate of sleeping (%) (Kunming mice [1]; [6]) | Times of activities in 1 h after drug administration/10 min (Kunming mice [2]; 25 mg/kg, n = 10) | Times of activities in 2 h after drug administration/10 min (Kunming mice [2]; 25 mg/kg, n = 10) | Times of activities in 24 h after drug administration/10 min (Kunming mice [2]; 25 mg/kg, n = 10) | Times of activities in 1 h after drug administration/10 min (Kunming mice [2]; 50 mg/kg, n = 10) | Times of activities in 2 h after drug administration/10 min (Kunming mice [2]; 50 mg/kg, n = 10) | Times of activities in 24 h after drug administration/10 min (Kunming mice [2]; 50 mg/kg, n = 10) | Times of activities in 1 h after drug administration/10 min (Kunming mice [2]; 100 mg/kg, n = 10) | Times of activities in 2 h after drug administration/10 min (Kunming mice [2]; 100 mg/kg, n = 10) | duration of sleep (Kunming mice [3]; [7]) [min] | time to sleep (Kunming mice [3]; [7]) [min] | duration of sleep (Kunming mice [3]; [8]) [min] | time to sleep (Kunming mice [3]; [8]) [min] | duration of sleep (Kunming mice [3]; [9]) [min] | time to sleep (Kunming mice [3]; [9]) [min] | also measured |
| --- | --- | --- | --- | --- | --- | --- | --- | --- | --- | --- | --- | --- | --- | --- | --- | --- | --- | --- | --- | --- | --- |
| C=Cc1cc2c(=O)cc(-c3ccc(CC)c(N)c3)oc2c(C2CCSC2)c1C(N)=O (stereo not drawn) [Example 30] | 5 | 50** % | 6 | 60** % | 8 | 80*** % | 289.2 ± 45.7 /10 min | 264.1 ± 42.2 /10 min | 302.2 ± 87.3 /10 min | 235.8 ± 42.1 /10 min | 244.5 ± 48.2 /10 min | 294.5 ± 70.6 /10 min | 134.6 ± 35.7 /10 min | 173.5 ± 39.2 /10 min | 38.82 ± 15.41 | 4.37 ± 1.58 | 43.66 ± 21.43 | 3.73 ± 1.22 | 58.74 ± 19.57 | 3.25 ± 1.31 | Times of activities in 24 h after drug administration/10 min (Kunming mice [2]; 100 mg/kg, n = 10): 288.8 ± 92.1 /10 min |
| C=Cc1ccc(-c2cc(=O)c3cc(C#N)c(Cc4ccccc4)c(C=CC)c3o2)cc1[N+](=O)[O-] [Example 32] | 3 | 30% | 5 | 50** % | 6 | 60** % | 332.1 ± 47.8 /10 min | 321.3 ± 53.9 /10 min | 327.8 ± 93.9 /10 min | 270.2 ± 59.3 /10 min | 269.3 ± 50.3 /10 min | 334.7 ± 95.6 /10 min | 245.9 ± 38.8 /10 min | 258.9 ± 49.9 /10 min | 25.80 ± 22.64 | 5.38 ± 2.21 | 46.11 ± 24.53 | 4.34 ± 1.45 | 54.78 ± 20.89 | 3.86 ± 2.35 | Times of activities in 24 h after drug administration/10 min (Kunming mice [2]; 100 mg/kg, n = 10): 322.7 ± 88.5 /10 min |
| C#Cc1ccc(-c2cc(=O)c3cc(F)c(C(=O)O)c(O)c3o2)cc1CCCCCCCCCCCCCCCCCCCC [Example 33] | 5 | 50** % | 6 | 60** % | 7 | 70*** % | 304.9 ± 39.2 /10 min | 298.2 ± 35.6 /10 min | 273.2 ± 80.8 /10 min | 266.4 ± 51.6 /10 min | 247.1 ± 58.3 /10 min | 284.7 ± 78.7 /10 min | 179.0 ± 49.1 /10 min | 165.8 ± 52.3 /10 min | 30.43 ± 22.06 | 4.81 ± 2.37 | 36.53 ± 13.21 | 4.62 ± 1.75 | 51.56 ± 20.75 | 3.82 ± 1.12 | Times of activities in 24 h after drug administration/10 min (Kunming mice [2]; 100 mg/kg, n = 10): 318.4 ± 80.5 /10 min |
| CC=Cc1c(C(=O)O)cc2c(=O)cc(-c3ccc(F)c(C#N)c3)oc2c1C(=O)O [Example 34] | 2 | 20% | 4 | 40* % | 6 | 60** % | 292.2 ± 49.3 /10 min | 276.2 ± 43.8 /10 min | 313.2 ± 75.4 /10 min | 249.4 ± 62.4 /10 min | 263.3 ± 59.3 /10 min | 334.7 ± 72.3 /10 min | 127.8 ± 28.6 /10 min | 243.9 ± 40.5 /10 min | 37.89 ± 15.21 | 4.39 ± 1.61 | 44.75 ± 21.85 | 3.87 ± 1.42 | 54.77 ± 19.67 | 3.45 ± 1.38 | Times of activities in 24 h after drug administration/10 min (Kunming mice [2]; 100 mg/kg, n = 10): 298.7 ± 81.8 /10 min |
| CCCc1cc2c(=O)cc(-c3ccc(C(=O)O)c(C(N)=O)c3)oc2c(I)c1CCS(=O)(=O)O [Example 35] | 4 | 40* % | 6 | 60** % | 7 | 70** % | 336.84 ± 57.8 /10 min | 278.8 ± 49.0 /10 min | 307.4 ± 69.8 /10 min | 310.3 ± 48.9 /10 min | 244.8 ± 39.6 /10 min | 308.1 ± 954 /10 min | 266.8 ± 50.1 /10 min | 219.6 ± 47.7 /10 min | 38.25 ± 15.16 | 4.35 ± 1.42 | 57.54 ± 28.39 | 3.88 ± 1.16 | 58.38 ± 26.82 | 3.76 ± 1.49 | Times of activities in 24 h after drug administration/10 min (Kunming mice [2]; 100 mg/kg, n = 10): 321.5 ± 72.9 /10 min |
| COc1cc(OC)c2c(=O)cc(-c3ccc(OC)c(OC)c3)oc2c1 [Example 36] | 3 | 30% | 4 | 40* % | 6 | 60** % | – | – | – | – | – | – | – | – | 38.32 ± 20.03 | 4.21 ± 1.65 | 61.41 ± 26.54 | 3.77 ± 1.12 | 72.03 ± 21.92 | 3.09 ± 1.25 | Times of activities in 1 h after drug administration/10 min (Kunming mice [2]; 25 mg/kg, n = 10, 25 mg/kg): 321.4 ± 53.4 /10 min; Times of activities in 2 h after drug administration/10 min (Kunming mice [2]; 25 mg/kg, n = 10, 25 mg/kg): 310.8 ± 51.5 /10 min; Times of activities in 24 h after drug administration/10 min (Kunming mice [2]; 25 mg/kg, n = 10, 25 mg/kg): 300.2 ± 79.6 /10 min; Times of activities in 1 h after drug administration/10 min (Kunming mice [2]; 50 mg/kg, n = 10, 50 mg/kg): 289.9 ± 44.8 /10 min; Times of activities in 2 h after drug administration/10 min (Kunming mice [2]; 50 mg/kg, n = 10, 50 mg/kg): 258.2 ± 43.6 /10 min; Times of activities in 24 h after drug administration/10 min (Kunming mice [2]; 50 mg/kg, n = 10, 50 mg/kg): 311.5 ± 98.3 /10 min; Times of activities in 1 h after drug administration/10 min (Kunming mice [2]; 100 mg/kg, n = 10, 100 mg/kg): 288.3 ± 50.4 /10 min; Times of activities in 2 h after drug administration/10 min (Kunming mice [2]; 100 mg/kg, n = 10, 100 mg/kg): 235.8 ± 49.8 /10 min; Times of activities in 24 h after drug administration/10 min (Kunming mice [2]; 100 mg/kg, n = 10, 100 mg/kg): 322.6 ± 76.8 /10 min |
